Source: patent US20060134719A1, “Novel serine protease” (priority 2002, published 2006)
*: point of attachment. AMC = Cc1cc(=O)oc2cc(N*)ccc12; Boc = CC(C)(C)OC(=O)*; OBn = c1ccc(CO*)cc1

biological target: T1, purified protein solution (signal-FLAG-ARS-extracellular protein) (Homo sapiens, UniProt Q7Z410, INS90FVSSFQKTELEASCVGCSVLNYRDGNSSVLVHFQ); test: Enzyme activity of purified recombinant protein using synthetic peptides; type: biochemical; conditions: substrate 200 μM or 400 μM, ammonium hydrogen carbonate buffer, 37° C. for one hour; versus buffer control
T1 construct: made in house; host or cells: HEK293-EBNA
T1 sequence (Q7Z410 with tags, fused parts or gaps INS90FVSSFQKTELEASCVGCSVLNYRDGNSSVLVHFQ): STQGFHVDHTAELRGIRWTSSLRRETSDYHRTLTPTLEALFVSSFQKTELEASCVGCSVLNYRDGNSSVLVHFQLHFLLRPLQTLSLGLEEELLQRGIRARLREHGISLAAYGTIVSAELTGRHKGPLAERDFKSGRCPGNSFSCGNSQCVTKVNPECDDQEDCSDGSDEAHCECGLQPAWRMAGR
T1 sequence (Q7Z410 with tags, fused parts or gaps): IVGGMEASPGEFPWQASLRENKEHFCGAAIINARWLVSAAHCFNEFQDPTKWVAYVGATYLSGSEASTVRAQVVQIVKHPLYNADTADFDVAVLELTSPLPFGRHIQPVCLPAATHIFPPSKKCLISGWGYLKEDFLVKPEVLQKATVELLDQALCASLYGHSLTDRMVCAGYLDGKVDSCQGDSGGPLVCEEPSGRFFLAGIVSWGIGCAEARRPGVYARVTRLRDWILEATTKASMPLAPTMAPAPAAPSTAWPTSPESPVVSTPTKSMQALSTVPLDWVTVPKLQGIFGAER
Method: Using a cell expressing the signal-FLAG-ARS-extracellular protein, a recombinant protein secreted into the liquid culture of the cell was extracted and purified. Specifically, the transfected HEK293EBNA cells were incubated by the same method as in Example 7 to about 80% confluence, from which the culture medium was then removed. Instead, a culture medium containing 4% serum was added, for further incubation under conditions of 37° C. and a carbon dioxide concentration of 5% for another 4 days. The culture supernatant was recovered 4 days later; filtered through a 0.22-μm filter (Zartor); and adsorbed on an ANTI-FLAG M2-AGAROSE AFFINITY GEL (Sigma) column equilibrated with TBS buffer by a routine method. Subsequently, about 50 ml of the TBS buffer was used for washing the column. Then, 6 ml of […] glycine hydrochloride solution of pH 2.2 was passed through the column to obtain each 1 ml fraction. To the separated fractions, 100 μl of 1 M Tris-HCl of pH 8 was immediately added to adjust the pH. The individual fractions thus obtained were confirmed by Western blotting using an antibody against the FLAG tag added to the N terminus (mouse anti-FLAG monoclonal antibody M2; Sigma). Specifically, the eluted fractions were electrophoresed on SDS/4% to 20% acrylamide gel (Daiichi Pure Chemicals Co., Ltd.) (under reducing conditions) and then transferred on PVDF membrane (Millipore) using a blotting apparatus. After adding Block Ace (DAINIPPON PHARMACEUTICAL CO., LTD.) for blocking to the transferred PVDF membrane, a biotinylated mouse anti-FLAG monoclonal antibody (M2; Sigma) and horseradish peroxidase-labeled streptoavidin (Amersham Pharmacia) were sequentially reacted. After reaction, it was confirmed that which eluted fractions contained the protein, using ECL Western blotting detection system (Amersham Pharmacia).
Using a synthetic peptides which have the C terminus labeled wit MCA (4-methyl-coumaryl-7-amide) by the same method as in Example 8, the cleavage activity of the enzyme purified in Example 10 was detected. Unless otherwise described, the method described in a paper (Yasuoka, S. et al., Am. J. Respir. Cell Mol Biol., Vol. 16, 300-308, 1997) was used. Specifically, using a synthetic peptides (Peptide Institute, Inc.) which have the C terminus labeled with MCA as substrates, the substrates were diluted with ammonium hydrogen carbonate buffer to become a final concentration of 200 μM or 400 μM in a 96-well plate. After the purified protein solution obtained in Example 10 or the ammonium hydrogen carbonate buffer as a control was added to the substrate solutions, the resulting mixtures were incubated at 37° C. for one hour. Subsequently, the fluorescence of AMC (7-amino-4-methyl-coumarin) released from the synthetic peptide by enzymatic cleavage was measured at a wavelength of 460 nm for measurement, using an excitation wavelength of 390 nm with a fluorescent plate reader (SAFIRE manufactured by TECAN). In FIG. 1, the open bar expresses buffer control, while the solid bar expresses the case of using purified protein solution. The first bar represents the case of using Boc-Glu(OBzl)-Ala-Arg-MCA as a substrate; the second bar represents the case of using Boc-Phe-Ser-Arg-MCA as a substrate; the third bar represents the case of using Boc-Leu-Ser-Thr-Arg-MCA as a substrate; the fourth bar represents the case of using Boc-Gln-Arg-Arg-MCA as a substrate; the fifth bar represents the case of using Suc-Ala-Ala-Pro-Phe-MCA as a substrate; the sixth bar represents the case of using Suc-Ala-Pro-Ala-MCA as a substrate; the seventh bar represents the case of using Boc-Glu-Lys-Lys-MCA as a substrate; the eighth bar represents the case of using Boc-Leu-Lys-Arg-MCA as a substrate; the ninth bar represents the case of using Boc-Leu-Gly-Arg-MCA as a substrate; and the tenth bar represents the case of using Boc-Asp(OBzl)-Pro-Arg-MCA as a substrate.

Cleavage of synthetic peptide by purified protein solution (fluorescence of released AMC), showed the cleavage activities:
Boc-Phe-Ser-Arg-{AMC}, Boc-Gln-Arg-Arg-{AMC}, Boc-Glu(OBn)-Ala-Arg-{AMC}
